Each structure is given as a SMILES string.

For orientation: Ki means a dissociation constant, usually derived from enzyme kinetics or from competition with a known ligand. A word on the EC50: it is the concentration at which the effect is half-maximal. Low values mean greater potency, high ones weaker potency.

Data set [1] is described as follows: PK study in rats, cassette dosing. It counts as in vivo, rat. Particulars: % change vs. non-deuterated material, 5 mg/kg. As to the method:
(§1) The key PK parameters (presented as a % change vs. non-deuterated materials) are presented in Table 3 to include half-life (T½), area under the curve (AUC), bioavailability (F) and blood-to-plasma ration (BPR). Pharmacokinetics of the deuterated tryptamines was studied in rats. In a typical experiment, run as a cassette dosing, two groups of 5 Wistar female rats (200-250 g) with surgically inserted jugular vein catheter (Charles River, Andover, MA) were fasted for 12 h and then administered 5 mg/kg of the deuterated and 5 mg/kg of the related non-deuterated analog, by oral gavage or via a catheter for each group. At time points 0, 15, 30, 60 min, and 2, 4, 8, and 24 h, the resulting plasma was analyzed for the parent molecule using LC/MS spectroscopy. Two separate groups of 5 animals were used for determining blood-to-plasma ratio (BPR). Each group was sacrificed at time points 15 and 30 min, respectively, and the concentration of the parent drug was determined in the […] and plasma by LC/MS spectroscopy.

The target of data set [2] is T1, 5-HT1A (Homo sapiens, UniProt P08908).
T1 construct: expressed in transfected cells; host or cells: CHO-K1 or HEK293
T1 sequence (P08908 1-422): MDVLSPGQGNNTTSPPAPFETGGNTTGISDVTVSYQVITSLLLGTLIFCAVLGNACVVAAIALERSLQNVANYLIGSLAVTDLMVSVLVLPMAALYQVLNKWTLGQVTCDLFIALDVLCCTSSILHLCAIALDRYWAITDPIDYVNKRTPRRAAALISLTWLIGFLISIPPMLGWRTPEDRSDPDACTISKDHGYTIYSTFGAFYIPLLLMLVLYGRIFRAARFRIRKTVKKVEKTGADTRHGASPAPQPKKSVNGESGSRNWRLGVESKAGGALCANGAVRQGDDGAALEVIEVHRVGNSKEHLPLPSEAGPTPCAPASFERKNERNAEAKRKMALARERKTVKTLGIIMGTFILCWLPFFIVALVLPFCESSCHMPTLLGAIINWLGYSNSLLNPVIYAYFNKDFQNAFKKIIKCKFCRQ
Briefly: Receptor affinity assay, radioligand competition binding. As to the method: Receptor Affinity Assays: 5-HT1A, 5-HT2(A,B,C) receptor affinities were determined by radioligand competition binding. Membranes from CHO-K1 or HEK293 cells expressing serotonergic receptors were collected and incubated in assay buffer with Kd concentrations of radioligands and tests compounds that compete for receptor binding sites. After equilibration, the reaction was terminated by collecting ligand-receptor-membrane complexes (Microbeta, PerkinElmer), and radioactivity was measured by a scintillation counter (Microbeta2, PerkinElmer). Data were fit to non-linear curves, and Ki values were calculated per the Cheng-Prusoff equation.
On the technique in general: Displacement assays read how much labelled ligand stays bound in the presence of the test substance.

A short description of data set [3]: Blood-to-plasma ratio (BPR), parent drug in brain and plasma of rats. Format: in vivo, rat. Conditions: % change vs. non-deuterated material. The protocol: as §1
In data set [4] the target is T1, 5-HT1A. Put plainly: Receptor function assay, Gi stimulation (reduction in cAMP levels). It counts as cell-based. The protocol:
Receptor Function Assays: 5-HT1A receptor-mediated Gi stimulation (reduction in cyclic adenosine monophosphate (cAMP) levels) and 5-HT2(A,B,C) receptor-mediated Gq stimulation (phosphoinositide hydrolysis leading to the production of inositol phosphate 1 (IP1))-canonical signaling pathways—were measured as previously described (Canal et al., 2013), for example, with a homogeneous time-resolved fluorescence (HTRF) capable microplate reader (e.g., Mithras LB 940, Berthold) using commercially-available kits employing Fluorescence Resonance Energy Transfer (FRET) technology (e.g., LANCE Ultra cAMP TR-FRET (PerkinElmer) and IP-One HTRF (Cisbio) kits). Briefly, CHO-K1 or HEK293 cells expressing serotonergic receptors were incubated with test compounds in stimulation buffer. After equilibration, the reaction was terminated with the donor and acceptor fluorescent conjugates in lysis buffer, and FRET was measured. Data were fit to non-linear curves to calculate potencies (e.g., EC50) and efficacies (e.g., EMAX), relative to positive controls (e.g., serotonin).
For orientation: Cyclic AMP is a second messenger, typically raised through Gs and lowered through Gi signalling.

With `[2H]C([2H])(Cc1c[nH]c2cccc(O)c12)N(C)C` [PI-α,α-d2], in data set [1] (oral gavage or via catheter), the “AUC, deuterium kinetic isotope effect (% change)” value is recorded as 75% and the “T½, deuterium kinetic isotope effect (% change)” value stood at 50%. Further, the bioavailability in data set [1] (female, Wistar, rat, plasma, oral, read-out: F (bioavailability), deuterium kinetic isotope effect (% change)) came out at 45%. The compound also came in with a Ki on 5-HT1A [2] of 0.51 µM. In addition, in data set [3] (rats sacrificed at 15 min), the “BPR, 15 min, deuterium kinetic isotope effect (% change)” value was determined as 100%. Also, the “BPR, 30 min, deuterium kinetic isotope effect (% change)” value in data set [3] (rats sacrificed at 30 min) is on record as 150%. Moreover, the midpoint of the response at 5-HT1A [4], the EC50, lay at 0.2 µM.

For the origin of these results see US20230066286A1, “DEUTERATED TRYPTAMINE DERIVATIVES AND METHODS OF USE” (priority 2020, published 2023).
